Experimental data from PMC4163382, “Symbiotic Plant Peptides Eliminate Candida albicans Both In Vitro and in an Epithelial Infection Model and Inhibit the Proliferation of Immortalized Human Cells” (BioMed Research International, 2014).
Peptide text beside a SMILES is read from it.

Columns and labels:
C. albicans WO-1 = assay type: cell-based, Candida albicans; conditions: 10 μL dropped onto solid YPD, 30°C for 48 hours, mean (±spread); for Minimal fungicidal concentration, 3 h: C. albicans WO-1, 3 hours of treatment; for Minimal fungicidal concentration, 24 h: C. albicans WO-1, 24 hours of treatment
Method: (§1) The antifungal activity of the NCR peptides against C. albicans strains and other Candida species was determined in vitro using 96-well flat bottom microtiter plates (Sarstedt). Fifty microliters of dilutions from each peptide (final concentrations in the assays ranged from 2.5 to 100 μg/mL) was added to 50 μL of 10^4 cells mL^−1 and 10^5 cells mL^−1 in LSM. The plates were incubated at 30°C and the peptide concentrations that prevented the germination of yeast cells were determined by microscopic analysis and measurement of absorbance at 600 nm with a microtiter plate reader (FLUOstar OPTIMA; BMG Labtech) after 24 and 48 hours. Minimal inhibitory concentration (MIC) was determined as the lowest concentration of the peptide at which there was no visible and measurable growth after 24 hours of incubation. To determine whether the antifungal effect was fungistatic or fungicidal, 10 μL from each treatment was dropped onto solid YPD plate after 3 and 24 hours. Plates were incubated at 30°C for 48 hours and developing colonies were observed. Minimal fungicidal concentration (MFC) was defined where no fungal growth could be observed.

[1] = tested on: PK E6/E7 vaginal epithelial cells infected with C. albicans WO-1; assay: Vaginal epithelial cell - C. albicans coculture (RTCA); assay type: cell-based, human; conditions: PK E6/E7 + C. albicans WO-1, MOI of 5, 3 hours coculture then peptide 3 hours in PBgluc at both 25 and 50 μg/mL, RTCA at 40 hours
Method: PK E6/E7 cells were seeded in 96-well E-plates as described above for RTCA. On the next day, an overnight culture of C. albicans WO-1 was diluted to OD = 1 and let to grow until OD = 1.5–2. The fungal cell suspension was diluted in antibiotic/antimycotic-free CKM and was added to the human cells with a multiplicity of infection (MOI) of 5. After 3 hours of coculture at 37°C, CKM medium was replaced with NCR peptides in PBgluc. After 3 hours of incubation, peptides were removed and 200 μL of fresh antibiotic/antimycotic-free CKM was added. Subsequent measurements were performed as described above.
(§2) MTT assays and impedance measurements were performed in at least four technical parallels and two biological replicates; all the data are presented as mean ± standard deviation. Significance was calculated with Newman-Keuls post hoc test using the GraphPad Prism version 5 for Windows and a probability (P) value of less than 0.05 was considered significant.

[2] = tested on: C. albicans strains WO-1 and Sc 5314; assay: Microdilution antifungal assay, summary for C. albicans; assay type: cell-based, Candida albicans; conditions: strains WO-1 and Sc 5314, LSM medium, microdilution plate assay
Method: as §1

[3] = tested on: C. albicans strain Sc5314; assay type: cell-based, Candida albicans; conditions: C. albicans Sc5314, LSM medium, 30°C, 24 hours of treatment, peptide 2.5 to 100 μg/mL, microscopy and absorbance at 600 nm; mean (±spread)
Method: (§3) The C. albicans strains WO-1 and Sc5314 were maintained on YPD medium (1% (w/v) yeast extract, 2% (w/v) peptone, 2% (w/v) dextrose, 2% (w/v) agar; Beckton, Dickinson and Company). Hyphal growth was induced in complete keratinocyte medium (CKM; Life Technologies) without serum. The effect of the NCR peptides on free-living fungi was investigated either in PBgluc buffer (1 mM KH2PO4, 3 mM Na2HPO4 × 7H2O, 5% glucose, pH = 7.0) or in low-salt fungal medium (LSM) composed of 5 mM K2HPO4, 100 μM MgSO4, 10 μM FeCl, 0.2 μM CoCl2, 0.2 μM CuSO4, 4 μM Na2MoO4, 1 μM H3BO3, 0.2 μM KI, 1 μM ZnSO4, 0.2 μM MnSO4, 2% glucose, 0.2% asparagine, 40 μg/mL methionine, 4 μg/mL myo-inositol, 0.4 μg/mL biotin, 2 μg/mL thiamine-HCl, and 0.4 μg/mL pyridoxine-HCl.
as §1

C. albicans strain WO-1 = assay type: cell-based, Candida albicans; conditions: C. albicans WO-1, LSM medium, 30°C, 24 hours of treatment, peptide 2.5 to 100 μg/mL, microscopy and absorbance at 600 nm; mean (±spread)
Method: as §3, §1

[4] = tested on: PK E6/E7 vaginal epithelial cells; assay: MTT assay, cytotoxicity on human epithelial cells; assay type: cell-based; conditions: for Concentration that provoked cell death / toxicity: peptide in PBgluc 3 hours at 37°C, 24 hours regeneration in CKM, MTT 4 hours, 560 nm
Method: (§4) The immortalized human vaginal epithelial cell line PK E6/E7 [15] was cultured in serum-free CKM supplemented with 0.005 μg/mL recombinant epidermal growth factor, 50 μg/mL bovine pituitary extract, L-glutamine, and antibiotic/antimycotic solution (Life Technologies) in a CO2 thermostat at 37°C [16]. Cells at 60–70% confluence were used in subsequent experiments.
MTT Assay. PK E6/E7 vaginal epithelial cells were seeded in the wells of a 96-well plate at a density of 1 × 10^4 cells per well in a final volume of 100 μL. CKM was then aspirated and 100 μL of the appropriate peptide diluted in PBgluc was added. After 3 hours of incubation at 37°C, the peptide solution was removed, and the cells were let to regenerate in CKM for 24 hours. Then 5 mg/mL 3-[4,5-dimethylthiazol-2-yl]-2,5-diphenyltetrazolium bromide (MTT) was added to each well and the plate was placed to 37°C for 4 hours. The amount of formazan formed by the activity of the mitochondrial succinate dehydrogenase of living cells was measured by using a microtiter plate reader (FLUOstar OPTIMA) at the wavelength of 560 nm.
10 μg/mL of primycin, a macrolide lactone antibiotic complex that rapidly kills PK cells, was used as a control for cytotoxicity in both assays.
as §2

C. albicans WO-1 cells [5] = assay: Cell permeability assay (calcein release); assay type: cell-based, Candida albicans; conditions: calcein-loaded C. albicans WO-1, 10 mM potassium phosphate buffer pH 7.0, peptide 50 μg/mL, fluorescence 485/530 nm
Method: Cell permeability was monitored by the release of the intracellularly accumulated dye calcein. Overnight C. albicans WO-1 cells were washed twice with and resuspended in 10 mM potassium phosphate buffer (pH = 7.0) at a concentration of 10^7 cells mL^−1. Cells were loaded with acetomethoxy-calcein at a final concentration of 5 μM for 2 hours at room temperature. Cells were washed three times to remove the extracellular dye and then 100 μL of the suspension was transferred to FIA black 96-well plates. NCR peptides were then added at a concentration of 50 mg/L, and the release of calcein (formed by the cells' esterases) was measured by its fluorescence in a microtiter plate reader (FLUOstar OPTIMA) at excitation and emission wavelengths of 485 nm and 530 nm, respectively. Calcein efflux was calculated as previously reported.

[6] = tested on: PK E6/E7 vaginal epithelial cells; assay: Real-Time Cell Analysis (RTCA), proliferation of human epithelial cells; assay type: cell-based; conditions: 3 hours treatment in PBgluc, cell index 40 hours after treatment
Method: as §4
Real-Time Cell Analysis (RTCA). 7 × 10^4 PK E6/E7 cells per well were seeded in 96-well E-plates (ACEA Biosciences) in which the bottoms of the wells were covered with microelectrodes and the epithelial cells were allowed to attach to the bottom of the wells for 20 hours. CKM was then aspirated and the cells were treated with 100 μL of the peptides diluted in PBgluc. […] The cell index at the beginning of the measurement after treatment was considered as 100% and values measured at 40 hours were expressed (see Supplementary Figure 1in Supplementary Materials available online at http://dx.doi.org/10.1155/2014/320796). […]
as §2

C. albicans WO-1 cells [7] = assay: Localization of FITC-labeled peptides (confocal microscopy); assay type: cell-based, Candida albicans; conditions: 5 μg/mL (sublethal), 3 hours at 30°C in LSM
Method: C. albicans WO-1 cells were labeled with 5 μg/mL of the FM4-64 membrane stain (Life Technologies) and 0.5 μg/mL of the DNA stain 4′,6-diamidino-2-phenylindole (DAPI, Sigma) for 15 minutes after 2 hours of peptide treatment. Images were captured with an Axio Observer Z.1 (Zeiss) fluorescent microscope. For studying the interaction of peptides with the fungus, an overnight C. albicans WO-1 culture was diluted in LSM and treated with FITC-conjugated peptides (at the sublethal concentration of 5 μg/mL) for 3 hours at 30°C. Cells were then centrifuged for 4 minutes at 600 rpm and the unbound peptides were removed by gentle pipetting of the supernatant and cells were resuspended in LSM. The cell suspension was dropped onto a coverslip and images were taken with an Olympus FluoView FV1000 confocal laser-scanning microscope.

With `CC[C@H](C)[C@H](NC(=O)[C@H](CS)NC(=O)CNC(=O)[C@H](CC(N)=O)NC(=O)[C@@H](N)CCCNC(=N)N)C(=O)N[C@H](C(=O)N[C@@H](CC(=O)O)C(=O)N1CCC[C@H]1C(=O)N[C@@H](CCCNC(=N)N)C(=O)N[C@@H](CS)C(=O)N1CCC[C@H]1C(=O)N[C@@H](Cc1ccc(O)cc1)C(=O)N[C@@H](CCC(N)=O)C(=O)N[C@@H](CCC(N)=O)C(=O)N[C@@H](CS)C(=O)N[C@@H](CCCNC(=N)N)C(=O)N[C@@H](CCCNC(=N)N)C(=O)N1CCC[C@H]1C(=O)N[C@@H](CC(C)C)C(=O)N[C@@H](Cc1ccc(O)cc1)C(=O)N[C@@H](CS)C(=O)N[C@@H](CCCNC(=N)N)C(=O)N[C@@H](CCCNC(=N)N)C(=O)N[C@@H](CCCNC(=N)N)C(=O)O)C(C)C` [NCR247] (H-RNGCIVDPRCPYQQCRRPLYCRRR-OH; N-terminus and C-terminus assumed) the “Minimal fungicidal concentration, 3 h” value (C. albicans WO-1) was 14 (±10) μg/mL, the “Minimal fungicidal concentration, 24 h” value (C. albicans WO-1) was 16.5 (±13) μg/mL and the “Prevention of C. albicans induced epithelial cell death” value (“Prevention” for short) [1] was “could be prevented”. The “Anticandidal activity against the yeast form of growing C. albicans” value [2] was “exhibited anticandidal activity”, the “Minimal inhibitory concentration, Sc5314” value [3] was 25 (±2) μg/mL and the “Minimal inhibitory concentration, WO-1” value (C. albicans strain WO-1) was 14 (±9) μg/mL. For the same compound, the “Concentration that provoked cell death / toxicity” value [4] was 100 µg/mL and the “Calcein (dye) efflux” value (C. albicans WO-1 cells [5]) was 29.65 ± 12.6%.

For “AFERTETRMLTIPCTSDANCPKVISPCHTKCFDGFCGWYIEGSYEGP [NCR001, anionic chemically synthesized mature NCR peptide of Medicago truncatula]”, the “Prevention” value [1] was “unable to prevent vaginal epithelial cell death”, the “Effect on viability of the human cells” value ([4]; MTT assay, PBgluc, 12.5 to 100 μg/mL, for cationic peptides antifungal concentration range (<25 μg/mL)) was “no negative effect” and the “Effect on proliferation of the human cells” value [6] was “no negative effect”. For the same compound, the “Calcein (dye) efflux” value (C. albicans WO-1 cells [5]) was “no calcein release”.

“RLNTTFRPLNFKMLRFWGQNRNIMKHRGQKVHFSLILSDCKTNKDCPKLRRANVRCRKSYCVPI [NCR335, cationic chemically synthesized mature NCR peptide of Medicago truncatula]” was tested, and the “Minimal fungicidal concentration, 3 h” value (C. albicans WO-1) was 7 (±1) μg/mL, the “Minimal fungicidal concentration, 24 h” value (C. albicans WO-1) was 8 (±2) μg/mL and the “Prevention” value [1] was “could be prevented”. For the same compound, the “Anticandidal activity against the yeast form of growing C. albicans” value [2] was “exhibited anticandidal activity”, the “Minimal inhibitory concentration, Sc5314” value [3] was 12.5 (±2.5) μg/mL and the “Minimal inhibitory concentration, WO-1” value (C. albicans strain WO-1) was 11 (±1) μg/mL. For the same compound, the “Concentration that provoked cell death / toxicity” value [4] was greater than 25 µg/mL and the “Calcein (dye) efflux” value (C. albicans WO-1 cells [5]) was 43.12 ± 13.05%.

“SFLGTFISSCKRDKDCPKLYGANFRCRKGTCVPPI [NCR035, chemically synthesized mature nodule-specific cysteine-rich (NCR) peptide of Medicago truncatula]” was tested, and the “Localization of FITC-labeled peptide in C. albicans cells” value (C. albicans WO-1 cells [7]) was “did not label the C. albicans cells”.
